Test results published in patent US20230172877A1, “METABOLITES RELEASED FROM APOPTOTIC CELLS ACT AS NOVEL TISSUE MESSENGERS” (University of Virginia Patent Foundation, priority 2020, published 2023).
Peptide text beside a SMILES is read from it. * marks the point of attachment. Cbz = O=C(OCc1ccccc1)*; CH2F = FC*

Experiments:
Panx1 = target: T1, Panx1 (Homo sapiens, UniProt Q96RD7); assay: Panx1-dependent metabolite release from apoptotic Jurkat T cells with Panx1 inhibitors; assay type: cell-based; settings: UV-induced apoptosis; spironolactone 50 µM, trovafloxacin 25 µM
T1 construct: host or cells: Jurkat E6.1 T cells (wild type), apoptotic
Procedure: Apoptosis induction. Wild type Jurkat E6.1 (ATCC) or dominant negative Pannexinl-expressing (Panxl-DN)^10 cells were resuspended in RPMI-1640 containing 1% BSA, 1% PSQ, and 10 mM HEPES and treated with 250 ng ml^-1 anti-Fas (clone CH11), 10 µM ABT-737, or exposed to 150 mJ cm^-2 ultraviolet C irradiation for 1-2 min (Stratalinker). Jurkat cells were incubated for 4 hours after apoptosis induction. For apoptosis induction in the presence of Panx1 inhibitors, Jurkat cells were treated with spironolactone (50 µM) or trovafloxacin (25 µM) in RPMI containing 1% BSA and 1% PSQ.
For untargeted metabolomics analysis through Metabolon, recovery standards were added to samples in order to monitor QC of the analysis. Samples were methanol precipitated under shaking for 2 minutes. […] Samples were analyzed under 4 different conditions; two for analysis by two separate reverse phase (RP)/UPLC-MS/MS methods with positive ion mode ESI, one for analysis by RP/UPLC-MS/MS with negative ion mode ESI, and one for analysis by HILIC/UPLC-MS/MS with negative ion mode ESI. […]
During the above analyses of EXAMPLE 1, it was noted that despite the many cellular metabolites detected in the pellet, only a subset is released; further, even within a known metabolic pathway, only some but not others were released. […]

arthritis = settings: FBP alone, reference 26; cited from earlier work
[1] = exogenous supplementation, reference 13; cited from earlier work
[2] = test system: Jurkat cells, A549 lung epithelial cells, and HCT116 colonic epithelial cells; assay: Apoptosis-dependent release of conserved metabolites (analytical kits) with or without caspase inhibition; assay type: cell-based, human; settings: 50 uM zVAD pre-treatment for 10 min; UV, ABT-737, TRAIL
Procedure: A549 cells were treated with 10 µM ABT-737 or exposed 600mJ cm^-2 and incubated for twenty-four hours. HCT-116 cells were treated with 10 µM ABT-737 or 100 ng ml^-1 TRAIL and incubated for 24 hours. All cells were pre-treated for 10 min with 50 uM zVAD prior to apoptosis induction in indicated experiments. All cells were incubated at 37° C. with 5% CO2 for indicated times.
Metabolite detection. Spermidine detection was measured using a colorimetric kit (Cloud-Clone Corp.) via manufacturers’ protocol. Briefly, supernatants taken from cells under specified conditions were centrifuged at 1000 x g for twenty minutes. All reagents were brought to room temperature prior to use. […] 90 µl of substrate solution was added to each well and incubated for 10 minutes at 37° C. after which 50 µl of stop solution was added, the plate was mixed and immediately measure at 450 nm on a plate reader (Flex station 3). […]
ATP was measure using a luciferase-based kit (Promega) via manufactures’ protocol. […] Luminescence was immediately measure on the Flex Station 3. […]
Glycerol-3-phosphate and creatine were measured based on manufacturers’ protocols (Abcam). […] OD at 450 nm or fluorescence at Ex/Em 535/587 was measured for glycerol-3-phosphate and creatine, respectively.
To test other cell types and additional apoptotic modalities, we analyzed the release of four ‘conserved metabolites’ via analytical kits. […]

T1 sequence (Q96RD7 1-379 limits assumed): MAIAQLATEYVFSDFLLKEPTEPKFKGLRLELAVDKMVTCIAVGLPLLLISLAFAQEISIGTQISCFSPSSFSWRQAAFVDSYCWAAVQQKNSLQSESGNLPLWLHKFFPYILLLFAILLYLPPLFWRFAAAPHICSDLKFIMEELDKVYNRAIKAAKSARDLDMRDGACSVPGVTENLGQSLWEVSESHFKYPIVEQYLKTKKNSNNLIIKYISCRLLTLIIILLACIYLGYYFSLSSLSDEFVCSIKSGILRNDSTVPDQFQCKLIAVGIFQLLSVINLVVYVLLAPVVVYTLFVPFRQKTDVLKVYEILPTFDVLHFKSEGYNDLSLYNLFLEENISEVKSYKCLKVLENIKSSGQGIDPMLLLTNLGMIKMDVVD

## CC(=O)S[C@@H]1CC2=CC(=O)CC[C@]2(C)[C@H]2CC[C@@]3(C)[C@@H](CC[C@@]34CCC(=O)O4)[C@H]12 [Spiro, spironolactone]
Panx1
  Apoptotic metabolites in Jurkat T cell supernatants when Panx1 was inhibited: reduced

## N[C@@H]1[C@H]2CN(c3nc4c(cc3F)c(=O)c(C(=O)O)cn4-c3ccc(F)cc3F)C[C@@H]12 [Trovan, trovafloxacin]
Panx1
  Apoptotic metabolites in Jurkat T cell supernatants when Panx1 was inhibited: reduced

## O=C(COP(=O)(O)O)[C@@H](O)[C@H](O)[C@H](O)COP(=O)(O)O [fructose 1,6-bisphosphate (FBP), fructose 1,6-bisphosphate]
arthritis
  Role in arthritis: can have ameliorative roles in arthritis

## NCCCCNCCCN [spermidine]
[1]
  Effect on inflammation and longevity: can reduce inflammation and improve longevity

## COC(=O)C[C@H](NC(=O)[C@H](C)NC(=O)[C@@H](NC(=O)OCc1ccccc1)C(C)C)C(=O)CF [zVAD, zVAD-FMK] (Cbz-Val-Ala-Asp(OMe)-CH2F)
[2]
  Apoptosis-dependent release of the tested metabolites with caspase inhibition: attenuation
